Values quoted from earlier work in US20210353710A1, “GLP-1R AGONIST AND METHODS OF TREATMENT” (The Johns Hopkins University, priority 2020, published 2021).

Conditions: given twice a day for one month

For Exendin-4, the “effect on blood glucose in humans” value is given as “hypoglycemic effect”.
